Ends that are not written are not given here.

The test system of one assay is NMDA receptor. In kind it is cell-based, rat.
In assay [1] the target is NR1a/NR2B (GluN1-a/GluN2B) recombinant NMDA receptor (Rattus norvegicus, UniProt Q00960). It is filed as cell-based.
The target in assay [2] is NR1a/NR2A (GluN1-a/GluN2A) recombinant NMDA receptor (Rattus norvegicus, UniProt Q00959). It is filed as cell-based.
Sequence of NR1a/NR2A (GluN1-a/GluN2A) recombinant NMDA receptor (Q00959 whole entry, looked up): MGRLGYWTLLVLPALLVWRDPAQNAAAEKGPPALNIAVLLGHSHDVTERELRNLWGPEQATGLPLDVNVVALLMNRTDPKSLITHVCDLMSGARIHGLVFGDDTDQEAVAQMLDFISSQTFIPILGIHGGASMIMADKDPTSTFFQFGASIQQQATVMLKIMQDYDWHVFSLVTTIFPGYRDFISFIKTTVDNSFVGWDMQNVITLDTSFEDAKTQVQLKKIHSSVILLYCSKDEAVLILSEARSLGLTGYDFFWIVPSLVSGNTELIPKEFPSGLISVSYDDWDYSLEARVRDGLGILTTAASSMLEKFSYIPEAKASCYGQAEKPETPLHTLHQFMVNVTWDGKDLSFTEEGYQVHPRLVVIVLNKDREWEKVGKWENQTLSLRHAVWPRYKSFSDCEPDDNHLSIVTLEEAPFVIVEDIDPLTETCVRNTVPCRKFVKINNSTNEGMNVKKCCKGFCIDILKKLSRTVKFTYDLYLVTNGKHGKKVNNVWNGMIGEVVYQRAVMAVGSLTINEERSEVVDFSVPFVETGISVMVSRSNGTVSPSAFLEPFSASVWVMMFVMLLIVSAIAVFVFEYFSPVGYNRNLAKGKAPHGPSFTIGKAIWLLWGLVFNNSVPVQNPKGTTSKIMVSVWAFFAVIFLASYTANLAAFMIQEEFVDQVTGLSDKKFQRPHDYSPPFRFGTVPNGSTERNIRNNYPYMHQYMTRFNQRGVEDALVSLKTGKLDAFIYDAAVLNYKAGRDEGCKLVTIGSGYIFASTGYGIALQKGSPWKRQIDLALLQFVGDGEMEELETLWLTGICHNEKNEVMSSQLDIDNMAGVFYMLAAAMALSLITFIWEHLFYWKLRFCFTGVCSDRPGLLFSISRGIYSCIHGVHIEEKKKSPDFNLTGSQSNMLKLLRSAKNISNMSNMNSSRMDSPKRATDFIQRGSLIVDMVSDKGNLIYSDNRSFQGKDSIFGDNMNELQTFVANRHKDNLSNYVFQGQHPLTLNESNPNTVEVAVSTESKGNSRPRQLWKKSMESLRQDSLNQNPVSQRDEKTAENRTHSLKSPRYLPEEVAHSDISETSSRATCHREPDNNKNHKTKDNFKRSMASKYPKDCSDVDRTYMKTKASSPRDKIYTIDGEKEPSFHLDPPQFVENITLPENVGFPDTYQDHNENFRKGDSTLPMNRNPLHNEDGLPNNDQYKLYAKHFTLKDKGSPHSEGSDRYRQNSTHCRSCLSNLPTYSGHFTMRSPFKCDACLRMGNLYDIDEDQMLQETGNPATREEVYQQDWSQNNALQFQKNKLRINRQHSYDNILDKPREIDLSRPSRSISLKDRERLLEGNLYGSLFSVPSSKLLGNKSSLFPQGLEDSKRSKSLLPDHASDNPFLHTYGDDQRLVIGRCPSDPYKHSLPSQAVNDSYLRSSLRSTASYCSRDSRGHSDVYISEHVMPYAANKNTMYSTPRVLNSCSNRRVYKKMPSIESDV

Sequence of NR1a/NR2B (GluN1-a/GluN2B) recombinant NMDA receptor (Q00960 whole entry, looked up): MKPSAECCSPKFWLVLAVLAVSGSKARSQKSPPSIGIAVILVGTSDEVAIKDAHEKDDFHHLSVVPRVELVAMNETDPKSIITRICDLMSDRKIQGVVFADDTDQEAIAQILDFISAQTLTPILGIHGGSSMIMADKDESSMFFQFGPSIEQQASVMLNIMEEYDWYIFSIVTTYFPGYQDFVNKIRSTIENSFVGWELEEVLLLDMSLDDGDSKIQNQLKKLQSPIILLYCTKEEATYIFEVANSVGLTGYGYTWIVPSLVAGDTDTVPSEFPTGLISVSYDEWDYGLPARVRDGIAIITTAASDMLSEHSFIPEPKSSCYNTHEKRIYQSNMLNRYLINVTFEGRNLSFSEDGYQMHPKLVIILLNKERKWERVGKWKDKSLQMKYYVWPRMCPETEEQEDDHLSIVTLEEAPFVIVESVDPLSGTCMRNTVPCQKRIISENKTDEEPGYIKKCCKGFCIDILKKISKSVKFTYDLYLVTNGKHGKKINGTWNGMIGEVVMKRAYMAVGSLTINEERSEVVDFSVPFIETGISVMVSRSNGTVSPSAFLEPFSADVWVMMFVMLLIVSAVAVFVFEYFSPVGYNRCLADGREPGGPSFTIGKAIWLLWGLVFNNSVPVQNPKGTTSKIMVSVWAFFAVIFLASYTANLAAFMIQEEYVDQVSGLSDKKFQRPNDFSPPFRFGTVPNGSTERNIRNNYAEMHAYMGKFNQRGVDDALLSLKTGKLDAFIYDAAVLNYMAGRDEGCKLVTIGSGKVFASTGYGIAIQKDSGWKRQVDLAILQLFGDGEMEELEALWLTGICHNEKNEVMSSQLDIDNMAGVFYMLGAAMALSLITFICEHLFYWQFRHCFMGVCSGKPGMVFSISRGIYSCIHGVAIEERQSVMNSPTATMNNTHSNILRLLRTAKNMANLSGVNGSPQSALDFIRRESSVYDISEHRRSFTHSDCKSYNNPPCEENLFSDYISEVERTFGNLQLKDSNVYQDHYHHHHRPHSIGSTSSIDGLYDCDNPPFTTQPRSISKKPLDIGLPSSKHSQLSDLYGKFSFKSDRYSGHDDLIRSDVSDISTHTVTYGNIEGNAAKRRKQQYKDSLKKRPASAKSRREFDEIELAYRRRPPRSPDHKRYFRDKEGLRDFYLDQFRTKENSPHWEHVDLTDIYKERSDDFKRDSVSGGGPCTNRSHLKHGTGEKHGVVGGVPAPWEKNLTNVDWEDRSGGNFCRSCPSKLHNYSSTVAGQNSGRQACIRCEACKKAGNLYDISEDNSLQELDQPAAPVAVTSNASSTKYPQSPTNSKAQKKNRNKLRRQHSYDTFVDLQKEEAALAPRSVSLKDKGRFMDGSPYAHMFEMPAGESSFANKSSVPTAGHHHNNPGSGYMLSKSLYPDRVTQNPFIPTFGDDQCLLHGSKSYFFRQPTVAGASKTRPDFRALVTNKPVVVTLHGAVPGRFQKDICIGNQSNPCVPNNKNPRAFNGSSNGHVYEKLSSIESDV

For the sequence GEDDLQDNQDLIRDKSN [SEQ ID NO: 2], the “inhibition in some registers” value with NMDA receptor was roughly 40%. The IC50 (commonly the concentration at which inhibition is half-maximal) at NMDA receptor (read-out: IC50 for inhibition of NMDA receptor-evoked current (dose-response curve)) came to 202 µM. Also, in assay [1], the “blocking of evoked current (in words)” value is reported as “Almost total blocking of the current”; the “selectivity between GluN2B and GluN2A subunits (in words)” value is given as “selectivity for subunit GluN2B rather than GluN2A”. In assay [2], the “reduction of evoked current (in words)” value is recorded as “slight reduction in current”.
